The structures appear in SMILES notation. Converted amounts (≈) assume the structure as drawn. Where two headings read alike, the source gives them in different places.

The values below come from patent publication US20260297029A1, “ALKOXY AND CARBAMOYL QUATERNARY AMINE SALTS AS PRODRUGS OF TRYPTAMINES” (priority 2023, published 2026).

In one series the test system is serotonin receptors. As to conditions: cited from earlier work.
A further series is described as follows: in vitro. The class given is in vitro ADME. As to conditions: for Remaining Percentage / remaining at 0.25 h / remaining at 0.5 h / remaining at 1 h / remaining at 2 h: mouse plasma; for Remaining Percentage: 0 min; for remaining at 0.25 h: 15 min; for remaining at 0.25 h / remaining at 0.5 h / remaining at 1 h / remaining at 2 h: read-out: Remaining Percentage; for remaining at 0.5 h: 30 min; for remaining at 1 h: 60 min; for remaining at 2 h: 120 min; for half-life: mouse, plasma.

Series [1] is described as follows: physchem. The class given is physicochemical. The method, then:
The half-life of the compounds was measured in PBS (pH 6.5), simulated gastric fluid (SGF) with pepsin, and SGF without pepsin.

Series [2] can be described thus: physchem. It is filed as physicochemical. Particulars: FaSSIF, RT, 30 mM DMSO stock, value close to or above 300 μM may mean solubility at or above 300 μM. As to the method:
Solubility measurements were taken according to the steps as followed:
2. Preparation of Stock Solution: The stock solution of test compounds was prepared in dimethyl sulfoxide (DMSO) at the concentration of 30 mM. The stock solution of control compound was prepared in DMSO at the concentration of 30 mM. Diclofenac sodium was used as positive control in the assay.
3. Procedures for Solubility Determination: 10 μL stock solution of each compound was placed in order into their proper 96-well rack, followed by adding 990 μL of FaSSIF into each vial of the cap-less Solubility Sample plate. This study was performed in duplicate. One stir stick was added to each vial and then vials were sealed using a molded PTDE/SIL 96-Well Plate Cover. The Solubility Sample plate was transferred to the Thermomixer Comfort plate shaker and incubated at RT for 2 hours with shaking at 1100 rpm. After 2 hours incubation, stir sticks were removed using a big magnet and all samples from the Solubility Sample plate were transferred into the filter plate. All the samples were filtered by using the Vacuum Manifold. An aliquot of 10 μL of the filtered samples were diluted with 980 μL of methanol and 10 μL of DMSO. The dilution factor might be changed according to the solubility value and the LC/MS signal response.
5. Sample Analysis: Samples were analyzed by LC-MS/MS.
[formula] • with DF as the dilution factor.

[3] abbreviates: only time points within the initial rate used where fast then slow disappearance, read-out: T1/2.
[4] abbreviates: PBS (pH 6.5), 30 min, read-out: Remaining Percentage.
The mark [5] stands for this setting: PBS (pH 6.5), 60 min, read-out: Remaining Percentage.
[6] abbreviates: PBS (pH 6.5), 120 min, read-out: Remaining Percentage.
Setting [7] is: PBS (pH 6.5), 240 min, read-out: Remaining Percentage.
Setting [8] is: PBS (pH 6.5), SGF with pepsin, SGF without pepsin.
[9] abbreviates: SGF with pepsin, 30 min, read-out: Remaining Percentage.
The mark [10] stands for this setting: SGF with pepsin, 60 min, read-out: Remaining Percentage.
Where [11] appears, read: SGF with pepsin, 120 min, read-out: Remaining Percentage.
Where [12] appears, read: SGF with pepsin, 240 min, read-out: Remaining Percentage.
[13] abbreviates: SGF with pepsin, if calculated T1/2 < 0, reported as 9999 min, read-out: T1/2.
[14] abbreviates: SGF without pepsin, 30 min, read-out: Remaining Percentage.
The mark [15] stands for this setting: SGF without pepsin, 60 min, read-out: Remaining Percentage.
[16] abbreviates: SGF without pepsin, 120 min, read-out: Remaining Percentage.
The mark [17] stands for this setting: SGF without pepsin, 240 min, read-out: Remaining Percentage.
The mark [18] stands for this setting: text statement of Table 4 value, read-out: half-life in mouse plasma.
Where [19] appears, read: SGF without pepsin, if calculated T1/2 < 0, reported as 9999 min, read-out: T1/2.

As to `CN(C)CCc1c[nH]c2cccc(O)c12` [psilocin, 4-hydroxy-DMT], the “activity at select serotonin receptors” value in the series on serotonin receptors is “agonists or partial agonists”.
Turning to `CC(C)[N+](C)(CCOC(=O)C1c2ccccc2Oc2ccccc21)C(C)C` [Propantheline, reference compound], in “in vitro”, the “Remaining Percentage” value is 100.00%, the share remaining at 0.25 h came out at 86%, the fraction remaining at 0.5 h stood at 67.2% and the amount remaining at 1 h was 35%. In the series “in vitro”, the amount remaining at 2 h was found to be 8.48%. Moreover, the half-life in the series “in vitro” (setting [3]) is 32.8 min.
Take `CN(C)CCc1c[nH]c2ccccc12` [DMT, N, N-dimethyltryptamine]: in the series with serotonin receptors, the “activity at select serotonin receptors” value is “agonists or partial agonists”.
Turning to `COc1ccc2[nH]cc(CCN(C)C)c2c1` [Compound 5-MeO-DMT, 5-methoxy-DMT], the “activity at select serotonin receptors” value with serotonin receptors (bind select serotonin receptors in the active state) is listed as “agonists or partial agonists”.
Turning to `O=C(O)CCCc1ccc(N(CCCl)CCCl)cc1` [Chlorambucil, reference compound], the “Remaining Percentage” value in the series “physchem [1]” (pH 6.5) was found to be 100.00%. In the series “physchem [1]” (pbs, pH 6.5), the half-life was 0.694 h, the amount remaining at 0.5 h stood at 59.4%, the amount remaining at 1 h turned out to be 37.1% and the amount remaining at 2 h was determined as 13.6%. The fraction remaining at 4 h in “physchem [1]” (pbs, pH 6.5) stood at 1.83%.
With `CN(C)CCc1c[nH]c2cccc(OP(=O)(O)O)c12` [psilocybin], in the series with serotonin receptors, the “activity at select serotonin receptors” value is “agonists or partial agonists”.
For the molecule `CC(C)(C)C(=O)OC[N+](C)(C)CCc1c[nH]c2ccccc12` [Compound 2, 2-(1H-indol-3-y1)-N,N-dimethy1-N-((pivaloyloxy)methyl)ethan-1-aminium], the solubility (kinetic) (commonly the concentration staying in solution when a stock, usually in DMSO, is diluted into the medium) at 2 h in the series “physchem [2]” came out at 314 µM. Also, the “Remaining Percentage” value in the series “physchem [1]” (PBS (pH 6.5), 0 min) amounted to 100.00%; in the series “physchem [1]” (SGF with pepsin, 0 min) it was 100.00%; in “physchem [1]” (SGF without pepsin, 0 min), 100.00%; in “in vitro”, 100.00%. Moreover, the share remaining at 0.5 h in “physchem [1]” (setting [4]) was 97.4%; in the series “physchem [1]” (setting [9]) it was 94.3%; in “physchem [1]” (setting [14]) it was 90.7%; in “in vitro” it was 7.66%. For the same molecule, the fraction remaining at 1 h came to 101% in the series “physchem [1]” (setting [5]), 104% in the series “physchem [1]” (setting [10]), 97.3% in “physchem [1]” (setting [15]) and 1.13% in “in vitro”. The fraction remaining at 2 h was 98.3% in the series “physchem [1]” (setting [6]), 96.6% in the series “physchem [1]” (setting [11]), 104% in “physchem [1]” (setting [16]) and 0% in “in vitro”. Besides, the amount remaining at 4 h was determined as 95.3% in “physchem [1]” (setting [7]), 96.1% in “physchem [1]” (setting [12]) and 104% in “physchem [1]” (setting [17]). Moreover, the “Stability in the environment of a stomach and in the presence of pepsin” value in “physchem [1]” (setting [8]) is recorded as “does not degrade in the environment of a stomach nor in the presence of pepsin”. Also, the half-life is 63.2 h in the series “physchem [1]” (PBS (pH 6.5), if calculated T1/2 < 0, reported as 9999 min, read-out: T1/2); 88.8 h in “physchem [1]” (setting [13]); 9.41 min in “in vitro” (setting [3]); 9.4 min in “in vitro” (setting [18]). Also, the amount remaining at 0.25 h in the series “in vitro” turned out to be 24.4%.
`CN(C)C(=O)OC[N+](C)(C)CCc1c[nH]c2ccccc12` [Compound 1, N-(((dimethylcarbamoyl)oxy)methyl)-2-(1H-indol-3-yl)-N,N-dimethylethan-1-aminium] showed a kinetic solubility at 2 h in the series “physchem [2]” of 290 µM. Besides, the “Remaining Percentage” value is on record as 100.00% in “physchem [1]” (PBS (pH 6.5), 0 min); 100.00% in the series “physchem [1]” (SGF with pepsin, 0 min); 100.00% in the series “physchem [1]” (SGF without pepsin, 0 min); 100.00% in the series “in vitro”. Moreover, the fraction remaining at 0.5 h amounted to 97.7% in the series “physchem [1]” (setting [4]), 101% in the series “physchem [1]” (setting [9]), 105% in “physchem [1]” (setting [14]) and 92.6% in “in vitro”. Further, the share remaining at 1 h in “physchem [1]” (setting [5]) was found to be 108%; in “physchem [1]” (setting [10]), 100%; in “physchem [1]” (setting [15]) it was 100%; in the series “in vitro”, 90.2%. For the same molecule, the fraction remaining at 2 h in the series “physchem [1]” (setting [6]) came to 107%; in the series “physchem [1]” (setting [11]), 97.2%; in “physchem [1]” (setting [16]), 104%; in the series “in vitro” it was 58.3%. The share remaining at 4 h in the series “physchem [1]” (setting [7]) is 108%; in “physchem [1]” (setting [12]) it was 108%; in the series “physchem [1]” (setting [17]) it was 100%. The “Stability in the environment of a stomach and in the presence of pepsin” value in the series “physchem [1]” (setting [8]) is listed as “does not degrade in the environment of a stomach nor in the presence of pepsin”. Besides, the results for the half-life in “physchem [1]” (setting [19]), in the series “in vitro” (setting [3]) and in “in vitro” (setting [18]) were 261 h, 156 min and 155 min, respectively. Besides, in the series “in vitro”, the amount remaining at 0.25 h turned out to be 97.5%.
On to `CC[C@H]1OC(=O)[C@H](C)[C@@H](O[C@H]2C[C@@](C)(OC)[C@@H](O)[C@H](C)O2)[C@H](C)[C@@H](O[C@@H]2O[C@H](C)C[C@H](N(C)C)[C@H]2O)[C@](C)(O)C[C@@H](C)C(=O)[C@H](C)[C@@H](O)[C@]1(C)O` [Erythromycin, reference compound], for which the “Remaining Percentage” value in the series “physchem [1]” (SGF with pepsin, 0 min) is 100.00%; in the series “physchem [1]” (SGF without pepsin, 0 min), 100.00%. In addition, the amount remaining at 0.5 h in the series “physchem [1]” (setting [9]) was found to be 52.6%; in the series “physchem [1]” (setting [14]), 54.5%. Besides, the amount remaining at 1 h in the series “physchem [1]” (setting [10]) was 30.5%; in the series “physchem [1]” (setting [15]) it was 29.1%. The amount remaining at 2 h was found to be 9.74% in “physchem [1]” (setting [11]) and 9.44% in “physchem [1]” (setting [16]). Further, the share remaining at 4 h is 1% in “physchem [1]” (setting [12]) and 1.05% in “physchem [1]” (setting [17]). The half-life is 0.6 h in the series “physchem [1]” (setting [13]) and 0.61 h in the series “physchem [1]” (setting [19]).
In turn, `O=C(O)Cc1ccccc1Nc1c(Cl)cccc1Cl` [Diclofenac, reference compound] came in with a kinetic solubility at 2 h in “physchem [2]” of 276 µM (≈ 81.7 µg/mL).
